This is an account of results in article PMC5761330 (ACS chemical biology, 2017).

The target in test [1] is recombinant Pax2 paired domain (amino acids 1–170) / PRS oligo (Mus musculus, UniProt P32114). Nature of the test: Electrophoretic mobility shift assay. In kind it is biochemical. As to conditions: EMSA.
Test [2] deals with Pax2 (Mus musculus, UniProt P32114). Nature of the test: PRS4-EGFP reporter, Western blot of EGFP. In kind it is cell-based. As to conditions: PRS4-EGFP cells, increasing concentrations.
Chain of Pax2 (P32114 1-391 isoform P32114-2): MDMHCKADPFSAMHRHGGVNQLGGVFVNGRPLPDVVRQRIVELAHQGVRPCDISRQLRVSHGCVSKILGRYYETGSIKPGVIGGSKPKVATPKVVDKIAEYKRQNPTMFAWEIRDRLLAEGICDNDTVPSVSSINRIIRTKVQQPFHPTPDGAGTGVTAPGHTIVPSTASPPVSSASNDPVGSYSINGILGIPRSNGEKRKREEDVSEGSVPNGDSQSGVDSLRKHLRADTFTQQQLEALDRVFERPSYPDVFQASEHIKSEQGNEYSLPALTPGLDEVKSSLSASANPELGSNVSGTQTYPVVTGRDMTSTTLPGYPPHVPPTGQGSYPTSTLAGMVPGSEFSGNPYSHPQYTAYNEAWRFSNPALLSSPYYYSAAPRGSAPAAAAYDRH
Test [3] concerns CMV-Luc. Nature of the test: CMV-Luc counter-screen in HEK293 cells. In kind it is cell-based. As to conditions: increasing concentrations.
The test system of test [4] is BRE-Luc (P-Smad mediated transactivation). Nature of the test: BMP dependent luciferase reporter. In kind it is cell-based. Particulars: HEK293 cells, in the presence of BMP4, increasing amounts.
For test [5], the target named is Pax8 (Homo sapiens, UniProt Q06710). Nature of the test: PRS4-Luc reporter activation by Pax8 in HEK293 cells. In kind it is cell-based. As to conditions: dose response.
Chain of Pax8 (Q06710 whole entry, species assumed): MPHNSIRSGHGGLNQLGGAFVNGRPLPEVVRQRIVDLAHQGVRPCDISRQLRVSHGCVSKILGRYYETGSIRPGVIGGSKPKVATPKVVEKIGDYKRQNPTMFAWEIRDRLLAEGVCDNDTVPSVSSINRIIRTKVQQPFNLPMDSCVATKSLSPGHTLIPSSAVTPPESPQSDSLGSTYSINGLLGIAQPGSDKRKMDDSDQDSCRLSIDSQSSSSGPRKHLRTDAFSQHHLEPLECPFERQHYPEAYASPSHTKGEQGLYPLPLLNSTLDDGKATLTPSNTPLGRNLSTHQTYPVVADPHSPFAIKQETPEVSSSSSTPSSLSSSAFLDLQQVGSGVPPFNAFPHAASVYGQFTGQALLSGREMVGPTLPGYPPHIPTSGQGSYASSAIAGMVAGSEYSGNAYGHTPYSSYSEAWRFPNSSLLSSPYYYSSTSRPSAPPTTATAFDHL
The target of test [6] is Pax5 (Homo sapiens, UniProt Q02548). Nature of the test: PRS4-Luc reporter activation by Pax5 in HEK293 cells. In kind it is cell-based. Particulars: dose response.
Chain of Pax5 (Q02548 whole entry, species assumed): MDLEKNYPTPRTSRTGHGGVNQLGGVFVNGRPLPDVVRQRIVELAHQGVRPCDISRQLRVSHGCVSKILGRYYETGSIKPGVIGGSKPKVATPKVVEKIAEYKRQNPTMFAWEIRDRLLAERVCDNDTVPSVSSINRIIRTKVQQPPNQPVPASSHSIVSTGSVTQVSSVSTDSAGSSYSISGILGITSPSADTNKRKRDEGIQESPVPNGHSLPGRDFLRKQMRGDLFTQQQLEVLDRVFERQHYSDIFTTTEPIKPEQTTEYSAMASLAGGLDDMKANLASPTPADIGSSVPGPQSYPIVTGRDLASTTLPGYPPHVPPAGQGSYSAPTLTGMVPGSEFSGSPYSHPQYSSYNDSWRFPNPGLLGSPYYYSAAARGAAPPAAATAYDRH
Test [7] has as its system 22Rv1, PC-3 and SK-OV-3 cells. Nature of the test: Phospho-histone H3 Western blot, Pax2 negative cancer cell lines. In kind it is cell-based. As to conditions: increasing amounts.
Test [8] deals with RCC111, TOV112D and ES-2 cells. The test is described as follows: Cell viability. In kind it is cell-based. Particulars: 48 h, 12.5 and 25 µM, Pax2 positive cells.
The test system of test [9] is E11.5 kidney rudiments. The test is described as follows: Embryonic kidney organ culture, branching morphogenesis. The arrangement: species or system mouse. As to conditions: 48 h, highest dose.
The subject of test [10] is 22Rv1, PC-3 and SK-OV-3 cells. The test is described as follows: Cell viability. In kind it is cell-based. Particulars: 48 h, 12.5 and 25 µM, Pax2 negative cells.
Test [11] has as its system kidney organ cultures. Nature of the test: Pax2 target gene expression in kidney organ cultures. The arrangement: species or system mouse. Particulars: kidney organ culture, 48 h.
The subject of test [12] is RCC111, TOV112D and ES-2 cells. The test is described as follows: Phospho-histone H3 Western blot, Pax2 positive cancer cell lines. In kind it is cell-based. Particulars: increasing amounts.
Test [13] has as its system E11.5 lung rudiments. Nature of the test: Embryonic lung organ culture, branching morphogenesis. Particulars: 48 h, increasing concentrations. The arrangement: species or system mouse.

Chain of recombinant Pax2 paired domain (amino acids 1–170) / PRS oligo (P32114 1-170): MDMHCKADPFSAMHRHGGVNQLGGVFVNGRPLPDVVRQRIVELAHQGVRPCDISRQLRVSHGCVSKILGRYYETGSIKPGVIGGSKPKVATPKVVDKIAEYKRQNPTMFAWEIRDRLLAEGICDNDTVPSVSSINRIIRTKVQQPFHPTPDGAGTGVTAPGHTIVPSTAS

For the compound `COc1ccccc1C(=O)Nc1ccc(C(=O)Nc2ccccc2C(=O)O)cc1` [EG1], the “Inhibition of Pax2-DNA binding” value was “Significant inhibition” in test [1] (10 µM) and “near complete inhibition” in [1] (100 µM). In addition, the “Inhibition of Pax2 mediated expression of EGFP” value in test [2] is given as “capable of inhibiting Pax2 mediated expression of EGFP”. Also, the “Inhibition of CMV-Luc in the counter-screen” value in test [3] is reported as “no inhibitory effect”. Besides, the “Effect on BRE-Luc reporter activity” value in test [4] is recorded as “unaffected”. Besides, the “Inhibition of PRS4-Luc activation by Pax8” value in test [5] is reported as “able to inhibit”. Also, the “Inhibition of PRS4-Luc activation by Pax5” value in test [6] is “able to inhibit”. Besides, the “Levels of phospho–histone H3 (P–H3)” value is given as “unchanged” in test [7] and “decreased levels of P–H3” in test [12]. The Cell viability entry in [8] was “significant decrease in cell viability”; in [10], “none of the Pax2 negative cells were affected”. In [9], the “Inhibition of branching morphogenesis” value is listed as “up to 75%”. The “Cited1 and HNF4a expression, qRT-PCR” value in test [11] is recorded as “clear reduction”. The “Cited1 expression, whole mount in situ hybridization” value in test [11] is given as “dramatic reduction in expression levels”. Besides, in [11], the “FoxD1, Msx1 and Twist2 (stromal genes) expression, qRT-PCR” value is “increased levels”. Besides, the “Effect on branching morphogenesis” value in test [13] is listed as “no change in branching morphogenesis”.
